Experimental findings from patent publication US20140066434A1, “Methods and Compositions for Treating Parkinson's Disease” (ARIAD PHARMACEUTICALS, INC., priority 2011, published 2014) are described below.

This data set is described as follows: Phase 1 clinical trial, safety.

On to `Cc1ccc(C(=O)Nc2ccc(CN3CCN(C)CC3)c(C(F)(F)F)c2)cc1C#Cc1cnc2cccnn12` [ponatinib, 3-(Imidazo[1,2-b]pyridazin-3-ylethynyl)-4-methyl-N-(4-((4-methylpiperazin-1-yl)methyl)-3-(trifluoromethyl)phenyl)benzamide], for which, under “45 mg cohort”, the DLTs entry is listed as “a reversible rash was seen with one patient”. For the same compound, the DLTs result (60 mg cohort) was “four patients developed reversible pancreatic related DLT (pancreatitis)”. For the same compound, the DLTs entry (2 to 30 mg cohorts) was “No DLTs”. Further, for the setting “phase 1, all cohorts”, the “drug-related adverse events of any grade: anemia” value came out at 12%, the “drug-related adverse events of any grade: lipase increase” value came out at 12%, the “drug-related adverse events of any grade: nausea” value was found to be 12% and the “drug-related adverse events of any grade: rash” value is given as 12%. Besides, under “phase 1, all cohorts”, the “drug-related adverse events of any grade: thrombocytopenia” value turned out to be 25%. In addition, for the setting “phase 1, mono-hydrochloride salt”, the “maximum tolerated dose (MTD)” value is 45 mg.
